Patent publication US20080003635A1, “High Throughput Collagen Synthesis Assay” (InterMune, Inc., priority 2006, published 2008)
Where two headings read alike, the source gives them in different places.

System: Human lung fibroblast cells HFL1
Test: cells
Assay type: cell-based
Description: Human lung fibroblast cells HFL1 were seeded as 5×10^4 cells/well in 48-well plate and cultured for 3-7 days in FK12 medium supplemented with 10% heat inactivated fetal calf serum, 2 mM L-glutamine, streptomycin (100 μg/ml), and penicillin (100 units/ml). […] Medium was removed and cells were fixed to the plate with 0.5% glutaraldehyde, prepared in 1× phosphate-buffered-saline (PBS), for 30 minutes at room temperature. Glutaraldehyde was removed, cells were washed with ddH2O and the first 24 wells, which were used to determine collagen synthesis, were treated with 0.5 M acetic acid for 30 minutes, while the second 24 wells were stained with 0.1% crystal violet for viability for 30 minutes at room temperature. After all of the wells were washed with ddH2O, 250 μl of Sirius Red was added to acetic acid-treated cells for 2 hours. The Sirius Red was then removed, and the wells were washed with ddH2O. Absorbed Sirius Red and crystal violet were eluted with 300 μl of alkaline solution and 0.1 M citric acid (pH: 4.2) prepared in 50% ethanol, respectively.
Absorbances of eluted Sirius Red and crystal violet were determined at 540 and 600 nm. The extent of collagen accumulation was determined by normalizing the levels of induced collagen to cell density.

## Cc1ccc(=O)n(-c2ccccc2)c1 [P, pirfenidone]
HFL1, 24 h, read-out: Fold Induction of Collagen, 250 pg/ml TGF-β, 24 hrs., P 1 mM, A 300 pg/mL
  fold induction at 1000 µM: 0.973
HFL1, 24 h, read-out: Fold Induction of Collagen, 500 pg/ml TGF-β, 24 hrs., P 1 mM, A 300 pg/mL
  fold induction at 1000 µM: 0.98
HFL1, 24 h, read-out: Fold Induction of Collagen, 1000 pg/ml TGF-β, 24 hrs., P 1 mM, A 300 pg/mL
  fold induction at 1000 µM: 0.998
HFL1, 48 h, read-out: Fold Induction of Collagen, 250 pg/ml TGF-β, 48 hrs., P 1 mM, A 300 pg/mL
  fold induction at 1000 µM: 0.997
HFL1, 48 h, read-out: Fold Induction of Collagen, 500 pg/ml TGF-β, 48 hrs., P 1 mM, A 300 pg/mL
  fold induction at 1000 µM: 0.884
HFL1, 48 h, read-out: Fold Induction of Collagen, 1000 pg/ml TGF-β, 48 hrs., P 1 mM, A 300 pg/mL
  fold induction at 1000 µM: 0.954
HFL1, 72 h, read-out: Fold Induction of Collagen, 250 pg/ml TGF-β, 72 hrs., P 1 mM, A 300 pg/mL
  fold induction at 1000 µM: 0.928
HFL1, 72 h, read-out: Fold Induction of Collagen, 500 pg/ml TGF-β, 72 hrs., P 1 mM, A 300 pg/mL
  fold induction at 1000 µM: 0.931
HFL1, 72 h, read-out: Fold Induction of Collagen, 1000 pg/ml TGF-β, 72 hrs., P 1 mM, A 300 pg/mL
  fold induction at 1000 µM: 0.917
